One experiment deals with H1299. As to the kind of experiment: Antiproliferative MTT assay, H1299 lung cancer cells. It is filed as cell-based, human. The protocol: (§1) The antiproliferative activities of the cinnamyl and benzodioxyl derivatives were assessed against six human cell lines of three different types of cancer (colon, lung, and breast) using the 3-(4,5-dimethylthiazol-2-yl)-2,5-diphenyltetrazolium bromide (MTT) assay at seven concentrations for 48 h. The results are expressed as the IC50 values and are outlined in Table 1.
(§2) The cell lines were obtained from the American Type Culture Collection (ATCC). All the cancer cell lines (HT-29, HCT-116, H1299, HTB-54, MDA-MB-231 and MCF-7) and the nontumorigenic cells (184B5) were maintained in RPMI 1640 medium (Gibco), supplemented with 10% fetal bovine serum (FBS; Gibco) and 1% antibiotics (10.00 units/mL penicillin and 10.00 mg/mL streptomycin; Gibco). Cells were preserved in tissue culture flasks at 37 °C and 5% CO2. Culture medium was replaced every three days.
(§3) The cytotoxic effect of each compound was initially tested at seven different concentrations ranging between 0.5 and 100 µM in the cell lines mentioned above. The cells were seeded (1 × 10^4 cells per well) in 96-well plates and incubated at 37 °C and 5% CO2 for 24 h. After attachment, cells were treated with either dimethyl sulfoxide (DMSO) or increasing concentrations of the corresponding selenocompound for 48 h. The effect of the compounds on cell viability was determined by the MTT assay. In brief, 20 µL of MTT (5 mg/mL) was added to each well 2.5 h prior to experiment termination. At the end of the incubation, the medium was removed, and the formazan crystals were dissolved in 50 µL of DMSO. Absorbance was measured at 550 nm on a microplate reader. IC50 values were calculated using OriginPro 8.5.1. software by nonlinear curve fitting. Selectivity indexes were calculated as the ratio of the IC50 values determined for the nonmalignant and the tumoral cells in the breast cell lines (IC50 (184B5)/IC50 (MDA-MB-231) and IC50 (184B5)/IC50 (MCF-7)). Data were obtained from at least three independent experiments performed in triplicates.
(In general: Formazan colour is commonly taken as a measure of viable cells.)

For another experiment, the system named is HTB-54. As to the kind of experiment: Antiproliferative MTT assay, HTB-54 lung cancer cells. It is filed as cell-based, human. As to the method: as §1, §2, §3
Another experiment concerns MCF-7. Kind of experiment: Antiproliferative MTT assay, MCF-7 breast cancer cells. It is filed as cell-based, human. The protocol: as §1, §2, §3
A further experiment relates to 184B5. Kind of experiment: MTT assay in nonmalignant mammary gland cells 184B5. The conditions noted are these: for IC50: read-out: IC50 184B5. It is filed as cell-based. The protocol: To assess their possible selectivity, the synthesized selenocompounds were then tested in a mammary gland (184B5) nonmalignant cell line, and the selectivity indexes (SI) were determined as the ratio of the IC50 values obtained for the nonmalignant cells and the homolog cancer cells.
as §2, §3

Experiment [1] deals with Leishmania infantum promastigotes. As to the kind of experiment: Parasite viability MTT assay, L. infantum promastigotes. It is filed as cell-based. To be noted: 48 h. The protocol:
The cytotoxic activities of all the derivatives against Leishmania major and Leishmania infantum promastigotes were studied by the MTT assay after exposing the parasites to five different concentrations of each compound for 48 h. Miltefosine and paromomycin, two currently available drugs for the treatment of leishmaniasis, were used as positive controls.
L. major (clone VI, MHOM/IL/80/Friendlin) and L. infantum (BCN-150) promastigotes were grown in continuous stirred M199 1X medium (Sigma, St Louis, MO, USA) at 26 °C supplemented with 25 mM HEPES (pH 7.2), 10% heat-inactivated FBS (Gibco, Gaithersburg, MD, USA), 0.1 mM adenine, 0.0005% (w/v) hemin, 0.0001% (w/v) biotin, 100 UI/mL penicillin and […] streptomycin (Gibco, Gaithersburg, MD, USA). Media were changed before each experiment to achieve exponential growth.
The antileishmanial activity was assessed by the MTT assay as previously described. Briefly, 3 × 10^6 promastigotes of both Leishmania strains were placed into a 96-well plate with supplemented M199 1X medium during their logarithmic growth phase. The parasites were treated with five increasing concentrations of the compounds ranging between 0.1 and 1000 µM at 26 °C for 48 h. At the termination point, 20 µL of MTT (5 mg/mL) was added and further incubated for 4 h. The resultant formazan crystals formed were dissolved in 80 µL of DMSO and the absorbance was measured at 550 nm on a microplate reader. IC50 values were calculated using OriginPro 8.5.1. software by nonlinear curve fitting. Miltefosine and paromomycin were used as reference drugs. Data were obtained from at least three independent experiments performed in triplicates.

The next experiment deals with E. coli. As to the kind of experiment: MIC and MBC assay, E. coli. It is filed as cell-based, Escherichia coli. The conditions noted are these: Gram-negative; for MBC / MIC: Escherichia coli; for MIC / MIC E. coli: 24 h at 37 °C. As to the method: (§4) The minimum inhibitory concentration (MIC) and the minimum bactericidal concentration (MBC) values of the selenocompounds were determined in a panel of six bacterial strains as a first approach to assess their antibacterial activity. Thus, the synthesized derivatives were tested against the Gram-negative bacteria Escherichia coli (E. coli), Klebsiella pneumoniae (K. pneumoniae) and Citrobacter freundii (C. freundii); and the Gram-positive bacteria Staphylococcus aureus (S. aureus), Streptococcus faecalis (S. faecalis), and Staphylococcus epidermidis (S. epidermidis). […]
(§5) All the selenocompounds were screened for their in vitro inhibitory activity against three Gram-negative (E. coli, K. pneumoniae and C. freundii) and three Gram-positive (S. aureus, S. faecalis and S. epidermidis) bacteria. Bacterial strains were kindly provided by the Department of Microbiology and Parasitology of the University of Navarra. The bacterial cells were grown in tryptic soy agar (TSA) plates and maintained at 4 °C.
(§6) The compounds were firstly dissolved in DMSO and serially diluted in a 96-well plate in tryptic soy broth (TSB) with eleven concentrations ranging from 400 µg/mL to 0.4 µg/mL with a final volume of 100 µL. Subsequently, 100 µL of a diluted suspension of bacterial cells with an optical density of 0.125 measured at 600 nm in TSB (inoculum of approximately 10^5 CFU/mL) was added to each well and incubated at 37 °C for 24 h. After the incubation period, each well was analyzed for the presence or absence of visual growth of bacterial cells. The lowest concentration of the test compound at which no visible growth occurred was determined as the MIC values. After incubation, 10 µL of the bacterial suspension from each well that presented antibacterial activity was added to divided TSA plates and incubated at 37 °C overnight.

The subject of a further experiment is K. pneumoniae. As to the kind of experiment: MIC and MBC assay, K. pneumoniae. It is filed as cell-based, Klebsiella pneumoniae. To be noted: for MIC / MBC: Klebsiella pneumoniae; for MIC: read-out: MIC K. pneumoniae; for MBC: read-out: MBC K. pneumoniae. As to the method: as §4, §5, §6
The next experiment concerns S. aureus. Kind of experiment: MIC and MBC assay, S. aureus. It is filed as cell-based, Staphylococcus aureus. The conditions noted are these: Gram-positive; for MBC / MIC: Staphylococcus aureus; for MIC / MIC S. aureus: 24 h at 37 °C. As to the method:
as §4, §5, §6

The mark [2] stands for this setting: Homo sapiens, NCI-H1299, 48 h, MTT assay, 48 h, mean ± SD, read-out: IC50 H1299.
The mark [3] stands for this setting: MTT assay, 48 h, mean ± SD, read-out: IC50 H1299.
Where [4] appears, read: Homo sapiens, HTB-54, MTT assay, 48 h, mean ± SD, read-out: IC50 HTB-54.
Where [5] appears, read: Homo sapiens, MCF7, MTT assay, 48 h, mean ± SD, read-out: IC50 MCF-7.
Setting [6] is: Homo sapiens, 184B5, 48 h, nontumorigenic cells, MTT assay, 48 h, mean ± SD.
Setting [7] is: nontumorigenic cells, MTT assay, 48 h, mean ± SD.
The mark [8] stands for this setting: Leishmania infantum, promastigotes, MTT assay, mean ± SD, read-out: IC50 Leishmania infantum.
The mark [9] stands for this setting: MTT assay, 48 h, mean ± SD, read-out: IC50 HTB-54.
The mark [10] stands for this setting: MTT assay, 48 h, mean ± SD, read-out: IC50 MCF-7.
Setting [11] is: promastigotes, MTT assay, mean ± SD, read-out: IC50 Leishmania infantum.

SMILES strings stand for the structures. In brackets after ≈: the same amount, converted by molar mass. Like-named read-outs stand apart in the source and are kept apart here. Bounds are passed on as bounds.

A word on the IC50: it is the concentration that gives 50% inhibition. One may read the MBC as the smallest concentration meeting the test's criterion for killing. For orientation: MIC means the least concentration at which growth counts as inhibited.

With `N#C[Se]C/C=C/c1ccccc1` [Compound 1a, (E)-(3-selenocyanatoprop-1-en-1-yl)benzene], the IC50 was above 50 µM in the experiment on H1299 (Homo sapiens, NCI-H1299, 48 h, read-out: IC50 H1299, MTT assay, 48 h, mean ± SD); 82.5 ± 5.9 µM in the experiment with H1299 (read-out: IC50 H1299, MTT assay, 48 h, mean ± SD); above 50 µM in the experiment on HTB-54 (Homo sapiens, HTB-54, 48 h, read-out: IC50 HTB-54, MTT assay, 48 h, mean ± SD); 58.7 ± 9 µM in the experiment on HTB-54 (read-out: IC50 HTB-54, MTT assay, 48 h, mean ± SD); above 50 µM in the experiment with MCF-7 (Homo sapiens, MCF7, 48 h, read-out: IC50 MCF-7, MTT assay, 48 h, mean ± SD); 55 ± 2.3 µM in the experiment on MCF-7 (read-out: IC50 MCF-7, MTT assay, 48 h, mean ± SD). The IC50 with 184B5 (Homo sapiens, 184B5, 48 h) was 55 ± 6.7 µM; in experiment [1] (Leishmania infantum, read-out: IC50 Leishmania infantum, promastigotes, MTT assay, 48 h, mean ± SD), below 5 µM; in experiment [1] (read-out: IC50 Leishmania infantum, promastigotes, MTT assay, mean ± SD), 3.3 ± 1.8 µM. Also, the MBC in the experiment on E. coli was above 200 mg/L; with K. pneumoniae it was 100 mg/L (≈ 450 µM); against S. aureus it was 50 mg/L (≈ 225 µM). Besides, the MIC with E. coli is 100 mg/L (≈ 450 µM); with K. pneumoniae (24 h), 100 mg/L (≈ 450 µM); in the experiment with S. aureus, 50 mg/L (≈ 225 µM).
`C(=C\c1ccccc1)/C[Se][Se]C/C=C/c1ccccc1` [Compound 1b, 1,2-Dicinnamyldiselenide]: the IC50 in the experiment on H1299 (setting [2]) is below 40 µM; in the experiment on H1299 (setting [3]), 28.7 ± 2.6 µM; in the experiment with HTB-54 (setting [4]) it was 50.1 ± 5.9 µM; in the experiment on MCF-7 (setting [5]) it was above 100 µM; in the experiment on 184B5 (setting [6]), above 100 µM; in experiment [1] (setting [8]), 39.4 ± 5.1 µM. In the experiment on 184B5 (setting [7]), the “IC50 184B5” value is on record as “not toxic”. Moreover, the MIC against E. coli was above 200 mg/L; with K. pneumoniae (Gram-negative, 24 h at 37 °C), above 200 mg/L; against S. aureus, above 200 mg/L.
Turning to `O=C(CC[Se]CC=Cc1ccccc1)[c-]1cccc1.[Fe+2].c1cc[cH-]c1` [Compound 1c, 3-(Cinnamylselanyl)-1-ferrocenylpropan-1-one], the IC50 with H1299 (setting [3]) amounted to 70.6 ± 6.6 µM; in the experiment with HTB-54 (setting [9]) it was 32.3 ± 3.2 µM; with MCF-7 (setting [10]), 18.5 ± 5.4 µM; in the experiment with 184B5 (setting [7]) it was 24.6 ± 0.4 µM; in experiment [1] (setting [11]) it was 23.2 ± 10.7 µM. In addition, the “MIC E. coli” value against E. coli is above 200 mg/L. Also, the “MIC K. pneumoniae” value against K. pneumoniae (Gram-negative, 24 h at 37 °C) was above 200 mg/L. Also, the “MIC S. aureus” value against S. aureus is above 200 mg/L.
Regarding `N#C[Se]Cc1ccc2c(c1)OCO2` [Compound 2a, 5-(Selenocyanatomethyl)benzo[d][1,3]dioxole], the IC50 was below 12 µM in the experiment with H1299 (setting [2]); 11.9 ± 3.7 µM with H1299 (setting [3]); 45.2 ± 8.2 µM in the experiment on HTB-54 (setting [4]); 59.3 ± 6.5 µM in the experiment with MCF-7 (setting [5]); around 50 µM with 184B5 (setting [6]); 48.6 ± 2.1 µM in the experiment with 184B5 (setting [7]). The figures for the IC50 in experiment [1] (setting [8]) and in experiment [1] (setting [11]) were below 5 µM and 3.7 ± 0.1 µM, respectively. Moreover, the values for the MBC against E. coli, in the experiment on K. pneumoniae (Gram-negative) and against S. aureus were 50 mg/L (≈ 208 µM), 50 mg/L (≈ 208 µM) and above 200 mg/L, respectively. Further, the MIC against E. coli was found to be 50 mg/L (≈ 208 µM); in the experiment with K. pneumoniae (Gram-negative, 24 h at 37 °C), 50 mg/L (≈ 208 µM); against S. aureus, 25 mg/L (≈ 104 µM). Moreover, the “MBC S. aureus” value with S. aureus was “could not be obtained”. The “MIC S. aureus” value against S. aureus was at most 25 mg/L.
Regarding `O=C(CC[Se]Cc1ccc2c(c1)OCO2)[c-]1cccc1.[Fe+2].c1cc[cH-]c1` [Compound 2c, 3-((Benzo[d][1,3]dioxol-5-ylmethyl)selanyl)-1-ferrocenylpropan-1-one], the IC50 turned out to be 45.2 ± 7.2 µM in the experiment with H1299 (setting [3]); 29.7 ± 2.9 µM with HTB-54 (setting [9]); 14.8 ± 4.3 µM in the experiment with MCF-7 (setting [10]); 50.1 ± 4.5 µM in the experiment on 184B5 (setting [7]); 7.2 ± 3.6 µM in experiment [1] (setting [11]). Also, the “MIC E. coli” value in the experiment with E. coli is above 200 mg/L. The “MIC K. pneumoniae” value against K. pneumoniae (Gram-negative, 24 h at 37 °C) is above 200 mg/L. In the experiment with S. aureus, the “MIC S. aureus” value was above 200 mg/L.

(Values after publication PMC9656702, “Unveiling a New Selenocyanate as a Multitarget Candidate with Anticancer, Antileishmanial and Antibacterial Potential” (Molecules, 2022).)
